The test system of assay [1] is MIA PaCa-2 cells. The experiment in a line: In-vitro anti-proliferative activity in combination with gemcitabine on MIA PaCa-2 cells. The class given is cell-based. The settings on record: 72 h. As to the method: MIA PaCa-2 cells were seeded on a 384-well plate at 3000 cells/well, and 20 nM or 200 nM gemcitabine (GMC) was added. After overnight adherence culture, DMSO or the compounds serially 1:5-diluted from 100 nM were added. The viability was assessed 72 h after dosing by measuring the intracellular ATP content. The inhibition percentage of viable cells by the compounds was calculated by comparing with the DMSO group, and the IC50 value was calculated.

Assay [2] deals with MIA PaCa-2 cells. The experiment in a line: In-vitro anti-proliferative activity on MIA PaCa-2 cells (intracellular ATP content, 72 h). The format is cell-based. As to conditions: Homo sapiens, compound alone, read-out: IC50 (nM) antiproliferative activity against MIA PaCa-2 cells. As to the method: MIA PaCa-2 cells were seeded on a 384-well plate at 3000 cells/well. After overnight adherence culture, DMSO or the compounds serially 1:5-diluted from 5 μM were added. The viability was assessed 72 h after dosing by measuring the intracellular ATP content. The inhibition percentage of viable cells by the compounds was calculated by comparing with the DMSO group, and the IC50 value was calculated.

For assay [3], the target named is recombinant protein Wee-1 (Homo sapiens (Human), UniProt P30291). The assay can be described thus: HTRF assay for inhibiting enzymatic activity of recombinant protein Wee-1. The format is biochemical. The settings on record: compounds up to 200 nM, read-out: (IC50) Inhibitory activity against recombinant protein Wee-1. A digest of the protocol:
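Compound (up to 200 nM, 1:5 series) preincubated with Wee-1 in kinase buffer 30 min at 37° C; Fluorescein-PolyGAT and ATP then added, reaction run 90 min at room temperature. Antibody detection 60 min; 520/495 nm ratio versus DMSO gave % inhibition and IC50.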
A general note: In TR-FRET formats the signal depends on donor and acceptor labels being close together.

The subject of assay [4] is HT29 subcutaneous xenograft tumor. The experiment in a line: Mouse HT29 subcutaneous xenograft tumor model (Example 165), with 30 mg/kg gemcitabine. The format is in vivo. As for the experimental part: HT29 is a colon cancer cell. Each nude mouse was grafted subcutaneously with 5×10^6HT29 cells. When the tumor grew to 100-200 mm^3, the compound was administered orally once a day in combination with 30 mg/kg of gemcitabine injected intraperitoneally once a week, and the tumor volume was measured twice a week and at the end of treatment. Tumor growth inhibition of the compound was calculated according to the following equation: tumor growth inhibition (TGI)=1−(tumor volume on day 20 in treatment group−tumor volume on day 1 in treatment group)/(tumor volume on day 20 in vehicle control group−tumor volume on day 1 in treatment group).

Assay [5] has the same test system. The experiment in a line: Mouse HT29 subcutaneous xenograft tumor model (Example 164), alone or with 15 mg/kg gemcitabine. The format is in vivo. As to conditions: gemcitabine alone 15 mg/kg intraperitoneally once a week. As for the experimental part:
HT29 is a colon cancer cell. Each nude mouse was grafted subcutaneously with 5×10^6HT29 cells. When the tumor grew to 100-200 mm^3, the compound was administered orally once a day alone or in combination with 15 mg/kg of gemcitabine injected intraperitoneally once a week, and the tumor volume was measured twice a week and at the end of treatment. Tumor growth inhibition of the compound was calculated according to the following equation: tumor growth inhibition (TGI)=1−(tumor volume on day 20 in treatment group−tumor volume on day 1 in treatment group)/(tumor volume on day 20 in vehicle control group−tumor volume on day 1 in treatment group).

Where [6] appears, read: with 20 nM gemcitabine, read-out: in combination with 20 nM GMC IC50.
[7] abbreviates: 30 mg/kg orally once a day in combination with 30 mg/kg of gemcitabine ip once a week.
Where [8] appears, read: 30 mg/kg orally once a day in combination with 30 mg/kg of gemcitabine ip once a week, day 20.

Each structure is given as a SMILES string.

Sequence of recombinant protein Wee-1 (P30291 whole entry): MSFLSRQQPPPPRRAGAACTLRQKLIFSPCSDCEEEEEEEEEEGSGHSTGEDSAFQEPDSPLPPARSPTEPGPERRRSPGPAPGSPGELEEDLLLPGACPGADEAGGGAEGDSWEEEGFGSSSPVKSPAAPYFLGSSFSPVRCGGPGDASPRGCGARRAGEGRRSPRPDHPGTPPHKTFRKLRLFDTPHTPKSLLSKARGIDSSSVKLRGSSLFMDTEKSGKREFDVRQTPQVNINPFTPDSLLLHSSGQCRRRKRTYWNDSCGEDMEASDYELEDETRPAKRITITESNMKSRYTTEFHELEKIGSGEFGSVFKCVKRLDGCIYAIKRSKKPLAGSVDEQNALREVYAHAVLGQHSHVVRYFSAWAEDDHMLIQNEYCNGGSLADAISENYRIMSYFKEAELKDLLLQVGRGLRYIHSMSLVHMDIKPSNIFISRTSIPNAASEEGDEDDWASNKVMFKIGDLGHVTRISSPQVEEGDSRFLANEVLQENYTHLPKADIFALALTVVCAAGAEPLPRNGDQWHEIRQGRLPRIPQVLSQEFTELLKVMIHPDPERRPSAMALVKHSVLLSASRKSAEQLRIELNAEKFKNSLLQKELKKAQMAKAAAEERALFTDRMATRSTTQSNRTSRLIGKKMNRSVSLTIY

A word on the IC50: it is the midpoint of a concentration-inhibition curve. As to `CN1CCc2ccc(Nc3ncc(C(F)(F)F)c(Nc4cccc(N=S(C)(C)=O)n4)n3)cc2C1` [Compound 2], the IC50 in the assay on MIA PaCa-2 cells [1] (setting [6]) was 30 nM; with MIA PaCa-2 cells [2], 398 nM; in assay [3], greater than 50 nM.

For `CN1CCc2c(cc(Nc3ncc(C#N)c(Nc4cccc(N=S(C)(C)=O)n4)n3)cc2C2CCCC2)C1` [Compound 18], the IC50 in the assay on MIA PaCa-2 cells [1] (setting [6]) was 2.1 nM; in assay [3] it was no more than 10 nM. Moreover, in assay [4] (setting [7]), the “Tumor volume on day 20 of treatment (mm^3)” value is reported as 218 mm^3. Also, the TGI in assay [4] (setting [8]) worked out at 92%.

Consider `CC(C)c1cc(Nc2ncc(C#N)c(Nc3cccc(N=S(C)(C)=O)n3)n2)cc2c1CCN(C)C2` [Compound 14], for which the IC50 in the assay on MIA PaCa-2 cells [1] (setting [6]) was 1 nM; in assay [3], no more than 10 nM. Further, the “Tumor volume on day 20 of treatment (mm^3)” value in assay [4] (setting [7]) is listed as 38 mm^3. Moreover, in assay [4] (setting [8]), the TGI is 106%.

For the compound `CN1CCc2ccc(Nc3ncc(C#N)c(Nc4cccc(N=S(C)(C)=O)n4)n3)cc2C1` [Compound 1], the IC50 in the assay with MIA PaCa-2 cells [1] (setting [6]) is 4.6 nM; with MIA PaCa-2 cells [2], 735 nM; in assay [3], no more than 10 nM.

As for `CN1CCc2c(cc(Nc3ncc(C#N)c(Nc4cccc(N=S(C)(C)=O)n4)n3)cc2C2(C)CC2)C1` [Compound 101], the IC50 in the assay on MIA PaCa-2 cells [1] (setting [6]) is 4.4 nM; in assay [3] it was no more than 10 nM. For the same compound, the “Tumor volume on day 20 of treatment (mm^3)” value in assay [4] (setting [7]) is 95 mm^3. Also, the TGI in assay [4] (setting [8]) is given as 102%.

For the compound `CN1CCc2ccc(Nc3ncc(C4CC4)c(Nc4cccc(N=S(C)(C)=O)n4)n3)cc2C1` [Compound 3], the IC50 in the assay on MIA PaCa-2 cells [1] (with 200 nM gemcitabine, read-out: in combination with 200 nM GMC IC50) is greater than 100 nM; in the assay on MIA PaCa-2 cells [2] it was 879 nM; in assay [3], greater than 50 nM.

Regarding `CN1CCc2ccc(Nc3ncc(P(C)(C)=O)c(Nc4cccc(N=S(C)(C)=O)n4)n3)cc2C1` [Compound 4], the half-inhibitory concentration (IC50) was greater than 100 nM in the assay with MIA PaCa-2 cells [1] (setting [6]), greater than 5000 nM in the assay on MIA PaCa-2 cells [2] and greater than 50 nM in assay [3].

In the case of `COCCCc1cc(Nc2ncc(C#N)c(Nc3cccc(N=S(C)(C)=O)n3)n2)cc2c1CCN(C)C2` [Compound 128], the IC50 was 2.5 nM in the assay with MIA PaCa-2 cells [1] (setting [6]) and no more than 10 nM in assay [3]. In addition, the “Tumor volume on day 20 of treatment (mm^3)” value in assay [4] (setting [7]) amounted to 284 mm^3. The TGI in assay [4] (setting [8]) was found to be 87%.

As for `Nc1ccn([C@@H]2O[C@H](CO)[C@@H](O)C2(F)F)c(=O)n1` [Gemcitabine, gemcitabine, reference compound], the “Tumor volume on day 1 of treatment (mm^3)” value in assay [5] (day 1) is listed as 102 mm^3. Moreover, in assay [5] (day 20), the TGI was determined as 54% and the “Tumor volume on day 20 of treatment (mm^3)” value is reported as 550 mm^3. In assay [4] (Mus musculus, HT-29, ip, 480 h, gemcitabine alone 30 mg/kg intraperitoneally once a week, day 20, read-out: TGI), the inhibition in vivo at 30 mg/kg is 60%. Further, in assay [4] (gemcitabine alone 30 mg/kg intraperitoneally once a week), the “Tumor volume on day 20 of treatment (mm^3)” value is listed as 653 mm^3.

(Values after patent US20240158369A1, “PYRIMIDINE COMPOUND AS WEE-1 INHIBITOR” (WIGEN BIOMEDICINE TECHNOLOGY (SHANGHAI) CO., LTD., priority 2021, published 2024).)
